The text below walks through data of patent US8389728B2, “Pollen tube stimulants from Arabidopsis pistils” (The Arizona Board of Regents, priority 2009, dated 2013).

The structures appear in SMILES notation.

The test system of data set [1] is Arabidopsis thaliana, ecotype Columbia. Briefly: Stimulation of pollen germination and pollen tube growth in vivo (seed yield). The settings on record: sprayed onto plants after blossoms open. From the text: The stimulation of pollen germination in vivo may be achieved by applying an effective amount of one or both Compound A or Compound B, or functional derivative thereof, to a plant, such as Arabidopsis thaliana, ecotype Columbia, or another plant that is sufficiently evolutionarily related to Arabidopsis, such as a member of family Brassicaceae. The pollen growth stimulant can be applied in any formulation such as described herein and by any method of applying a compound to the flower of a plant. For example, an effective amount of Compound A can be sprayed onto any given number of plants in an area after blossoms open and pistils are exposed.

Data set [2] deals with pollen from the Landsberg strain. As to the kind of experiment: Time course of pollen germination and tube growth, Landsberg strain. It is filed as cell-based, Arabidopsis thaliana. Conditions: 0.02 mg compound. As to the method:
(§1) Using the optimal concentration of compound for pollen tube stimulation (0.02 mg compound dispensed into 50 μL of pollen growth medium) pollen tube growth were time lapse imaged for a duration of greater than 12 hours. […] For example, Landsberg pollen grew about 130 μm longer in the presence of compound A compared to compound B (FIG. 11B).

In data set [3] the test system is pollen from the Arabidopsis Columbia strain. Briefly: Time course of pollen germination and tube growth, Columbia strain. It is filed as cell-based, Arabidopsis thaliana. As to the method:
as §1

In the next data set the test system is Arabidopsis pollen. Briefly: Time lapse imaging of pollen germination and pollen tube growth. It is filed as cell-based, Arabidopsis thaliana. Conditions: for initiation of germination compared to no compound controls: 0.02 mg compound in 50 μL PGM, time lapse > 12 hours; for rate of pollen germination (in words): 0.02 mg compound in 50 μL of pollen growth medium. As to the method: as §1

The conditions of data set [4]: Han et al. 2007; cited from earlier work.

For `C[S+]([O-])N1CCCC2CCCCC21` (stereo not drawn) [Compound A, 1-Methylsulfinyldecahydroquinoline], in data set [1], the “seed yield of plants exposed versus not exposed” value is on record as “increased seed yield”. Moreover, in data set [2], the “additional pollen tube length in the presence of compound A compared to compound B” value is “about 130 μm”. Moreover, the “extent of pollen growth, compound A versus B (in words)” value in data set [3] was “grew to a similar extent”. For the same molecule, in the data set on Arabidopsis pollen, the “initiation of germination compared to no compound controls” value is on record as “approximately two hours earlier” and the “rate of pollen germination (in words)” value is on record as “enhanced the rate of pollen germination”.

In the case of `C[S+]([O-])N1CCC2CCCCC2C1` (stereo not drawn) [Compound B, 2-Methylsulfinyldecahydroisoquinoline], in data set [3], the “extent of pollen growth, compound A versus B (in words)” value is “grew to a similar extent”. In addition, in the data set with Arabidopsis pollen, the “initiation of germination compared to no compound controls” value is “approximately two hours earlier” and the “rate of pollen germination (in words)” value is “enhanced the rate of pollen germination”.

Regarding `O=c1c(O)c(-c2ccc(O)cc2)oc2cc(O)cc(O)c12` [kaempferol], in data set [4], the “solubility in ethyl acetate” value was “highly soluble in ethyl acetate”.
